# pIC50: −log10 of the molar value. Activity calls are given as the source filed them. No rule for the calls is given here.
# Tested on: Saccharomyces cerevisiae lifespan shortening, growth inhibition
# Experiment: Saccharomyces cerevisiae growth inhibition potency – dose response (AID 849);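 also: yeast growth read as optical density after two days at 30 degrees C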
Structure (SMILES),pIC50,IC50
Cc1ccnn2cc3c(=O)n(C)c(=O)n(C)c3c12,4.64,–
Cc1ccc(-c2nn3c(C)nnc3s2)cc1NC(=O)c1ccc(OC(C)C)cc1,–,> 100 µM (inactive)
COc1ccc(OC)c(-c2c3cc(O)c(=O)cc-3oc3cc(O)c(O)cc23)c1,4.52,–
CC(C)(C)c1ccc(NC(=O)COC(=O)c2ccc([N+](=O)[O-])s2)cc1,4.47,–
Cc1ccc2[nH]c3c(c2c1)CCc1cn[nH]c1-3,4.81,–
COc1ccc(C(=O)NC(=S)NNC(=O)c2cnccn2)cc1,4.79,–
CN1CCN(C2=Cc3ccc(Cl)cc3Sc3ccc(F)cc32)CC1,4.52,–
CSC1=NSC2=NC(=O)/C(=C\c3coc4ccccc4c3=O)C(=N)N12,–,> 100 µM (inactive)
COc1cccc(-n2nnnc2S(C)(=O)=O)c1,5.02,–
CC(C)(C)c1cc(C(c2cccnc2)N2CCN(CCO)CC2)cc(C(C)(C)C)c1O (configuration not stated),4.76,–
O=c1c2cccc3c2c(nn1CN1CCOCC1)-c1ccccc1-3,4.63,–
C/C(=N\Nc1nc2c(s1)CCCC2)c1ccccc1,4.50,–
O=C(Oc1c(Cl)cc(Cl)c2cccnc12)c1cccc([N+](=O)[O-])c1,5.53,–
Cc1nc2cc3ccccc3cc2c(=O)[nH]1,–,> 100 µM (inactive)
Oc1cccc2ccc(/C=C/c3cccs3)nc12,4.43,–
Cn1c(SCC(=O)N/N=C/c2ccc([N+](=O)[O-])s2)nnc1-c1ccc(Cl)cc1,4.60,–
O=C(N/N=C/c1sc2ccccc2c1O)c1cccc2ccccc12,4.68,–
c1ccc(-c2nc3c(ccc4ccccc43)[nH]2)nc1,4.51,–
CC(=O)/C(=N\Nc1ccc(C)cc1)N1CCOCC1,4.96,–
CC(C)(C)c1ccc(-c2nc(-c3ccncc3)no2)cc1,4.64,–
c1ccc(Cc2nnc3sc(-c4ccc5c(c4)OCCO5)nn23)cc1,–,> 100 µM (inactive)

Structure (SMILES),pIC50,IC50
Cc1ccc(-n2c(C)cc(C(=O)COC(=O)c3ccc[nH]c3=O)c2C)cc1C,5.40,–
O=C1NCCCC1C(=O)N/N=C/c1cccc(O)c1 (configuration not stated),–,> 100 µM (inactive)
O=C(CSC1=NCCS1)N1CCN(c2ccc(Cl)cc2)CC1,–,> 100 µM (inactive)
Cc1ccc(C(=O)Oc2ccc(Cl)c3cccnc23)cc1[N+](=O)[O-],4.32,–
CN(c1ccc(O)cc1)c1nc(-c2ccccc2)cs1,–,> 100 µM (inactive)
Cc1cccc(OCCn2cc(/C=N/NC(=O)c3ccncc3)c3ccccc32)c1,–,> 100 µM (inactive)
Oc1c(CN2CCc3ccccc3C2)cc(Cl)c2cccnc12,4.80,–
N#Cc1ccccc1NC(=O)c1ccc2c(Cl)c3c(nc2c1)CCCC3,–,> 100 µM (inactive)
O=C(/C(=N/N=C/c1ccc(O)c(O)c1O)c1ccccc1)c1ccccc1,4.59,–
O=C(Nc1cccc(N=Cc2cc(Br)cc(Br)c2O)c1)c1ccco1,4.71,–
COc1ccc(OCCNC2CCCC2)cc1,–,> 100 µM (inactive)
COc1ccc(OC)c(C2CC(=O)N3CN(c4cccc(Cl)c4)CSC3=C2C#N)c1 (configuration not stated),–,> 100 µM (inactive)
CCOC(=O)c1cnc(-n2nc(C)cc2C)nc1NNc1cc(C)nc(-c2ccccc2)n1,–,> 100 µM (inactive)
COc1ccc(NC(=O)CC2SC(=Nc3ccccc3)NC2=O)c(OC)c1 (configuration not stated),–,> 100 µM (inactive)
CC1(C)CC(=NOC(=O)c2ccccc2)CC(C)(C)N1O,5.09,–
Cc1cc(O)c(/C=N/Nc2ccccc2Cl)c(=O)o1,4.53,–
C=CCSC(=C(C#N)C#N)c1cc2c([nH]1)CCCC2,–,> 100 µM (inactive)
N=c1n(CCN2CCOCC2)c2ccccc2n1CC(=O)c1ccc(Cl)c(Cl)c1,–,> 100 µM (inactive)
N#C/C(=C/c1cn(-c2ccccc2)nc1-c1cccc(OCc2ccc(F)cc2)c1)C(=O)NCCCn1ccnc1,–,> 100 µM (inactive)
CC(C)c1ccc(NC(=S)NCCc2c[nH]c3ccccc23)cc1,–,> 100 µM (inactive)
CCOC(=O)c1c(NC(=O)C(C)Sc2cccc[n+]2[O-])sc2c1CCN(Cc1ccccc1)C2 (configuration not stated),4.90,–

Structure (SMILES),pIC50,IC50
O=C(Nc1cccc(C(F)(F)F)c1)C(Sc1cccc[n+]1[O-])c1ccccc1 (configuration not stated),4.67,–
O/N=C/c1ccc(OCc2ccccc2)c(Br)c1,–,> 100 µM (inactive)
CCCCCCN1N=C(C)C(C(=O)c2ccc(Cl)cc2)C1=O (configuration not stated),4.79,–
CCCCc1ccc(NC(=S)Nc2ccc(Nc3ccc(OC)cc3)cc2)cc1,4.48,–
CCCC1COC(Cn2cncn2)(c2ccc(C)cc2)O1 (configuration not stated),5.40,–
Cc1cc(N2CCN(c3cccc(C)c3C)CC2)nc(-c2ccccc2)n1,4.45,–
CCCCN=C(NNc1ccc(Br)cc1)C(=O)OCC,5.28,–
CCOC(=O)CNC(=O)CSc1nnc(-c2ccco2)n1Cc1ccco1,–,> 100 µM (inactive)
Cc1cc(N/N=C/c2ccc(Cl)cc2Cl)nc(NCc2ccccc2)n1,4.54,–
CC(C)(Oc1ccc(Cl)cc1)C(=O)NC1=NN(c2ccccc2)C(=O)C1,4.74,–
Oc1ccc(/C=N/N=C(c2ccccc2)c2ccccc2)c(O)c1O,4.62,–
CS(=O)(=O)N1CCN(C(=O)c2ccccc2F)CC1,–,> 100 µM (inactive)
Nc1c(Cl)ncnc1N/N=C/c1ccccn1,4.95,–
Cc1cccc(Cn2ncc(Cl)c(Cl)c2=O)c1,4.43,–
CN1C(=O)C(O)(CC(=O)c2ccccc2O)c2cc(Br)ccc21 (configuration not stated),–,> 100 µM (inactive)
Cc1oc(-c2cccs2)nc1CS(=O)CC(=O)NC1CCCCCC1 (configuration not stated),–,> 100 µM (inactive)
N/C(Cc1ccccc1)=N\OC(=O)c1cccc2ccccc12,4.97,–
O=c1[nH]c(Nc2ccccc2)cc2ccccc12,–,> 100 µM (inactive)
Cn1c2ccccc2c(=O)n2c(=O)c3ccccc3cc12,4.28,–
CC1=C(C)/C(=N\OS(=O)(=O)c2ccccc2)C=CC1=O,4.52,–
N/C(Cc1ccc(Cl)cc1)=N\OC(=O)c1cccc2ccccc12,4.39,–

Structure (SMILES),pIC50,IC50
CCCCCC/C(=N/O)c1ccccn1,4.99,–
O=[N+]([O-])c1ccc(C2Oc3ccccc3C3CC(c4ccccc4)=NN32)s1 (configuration not stated),–,> 100 µM (inactive)
O=C(/C=C/N1CCOCC1)c1ccc(-c2ccccc2)cc1,4.94,–
Cn1c(=O)c(C(=O)Nc2ncccn2)c(O)c2ccccc21,4.48,–
O=C(O)c1ccccc1Nc1ccc([N+](=O)[O-])cc1,4.97,–
CCOC(=O)/C(=N\Nc1cccc(C(F)(F)F)c1)N(CCOC)CCOC,–,> 100 µM (inactive)
O=C(COc1ccccc1)NNC(=S)NC(=O)c1ccc(Cl)cc1Cl,4.50,–
Cc1sc2ncnc(N/N=C/c3ccccc3O)c2c1C,4.37,–
CCCCCCCCCCCCCCCC(O)C(N)CO (configuration not stated),4.48,–
O=c1oc2ccccc2c(O)c1/C=C1\C=Nc2ccccc21,4.74,–
CC(Oc1ccc(Cl)cc1Cl)C(=O)NC1=NN(c2ccccc2)C(=O)C1 (configuration not stated),5.03,–
CCOC(=O)c1ccc(-n2[nH]c(-c3ccccc3)cc2=O)cc1,4.77,–
Cc1nc(Nc2ccc(Cl)c(Cl)c2)sc1C(=O)Nc1ccccc1,–,> 100 µM (inactive)
CCOCC(=O)Nc1nc2c(s1)C(=O)CC(C)(C)C2,–,> 100 µM (inactive)
COc1ccccc1OCCN1CSC(=S)N(C)C1,4.93,–
O=C(CSCc1ccco1)Nc1cc(C(F)(F)F)ccc1N1CCOCC1,–,> 100 µM (inactive)
O=c1cnn([C@@H]2O[C@H](CO)[C@@H](O)[C@H]2O)c(=O)[nH]1,4.86,–
c1ccc2c(c1)C(=Nn1cnnc1)c1ccccc1-2,–,> 100 µM (inactive)
Cc1nc(Cl)c2oc3ccccc3c2n1,–,> 100 µM (inactive)

# Reference: PubChem BioAssay AID849 (SRMLSC, 2007)
